Reference: patent US9733236B2, “Methods for determining the effect of an agent on tissue stem cells” (priority 2014, dated 2017)
“Also recorded” adds a separate entry of the source. Structures can show the parent of a compound that is named as a salt.

Columns and labels:
[1] = clinical effects of the known drug; cited from earlier work
[2] = test system: tissue stem cells, transient cells; conditions: cell kinetics type the agent acts on; positive control agents; cited from earlier work
tissue stem cells = conditions: in vitro; known in the art; cited from earlier work
[3] = test system: human liver stem cell-enriched cultures; test: Serial culture of human liver stem cell strains with xanthosine (cumulative population doublings); format: cell-based; conditions: FIG. 14A
Text: Using a pre-existing dataset developed with control human mini-tissue cultures and cultures treated with the purine nucleoside xanthosine as the test agent, we have validated the ability to use basic cell culture data, described in the methods herein, to detect effects on liver tissue stem cells. […] We used xanthosine as the agent to expand human liver stem cell strains and to produce human liver mini-tissues. […] Thus, culture systems of cells comprising heterogeneous cell population of stem, transient, and differentiated cells can be used to evaluate the activity of a test agent against tissue stem cells by using the methods described herein.
As an initial test of this ability, we used existing data sets from serial culture of our human liver stem cell strains.^14,15 Because these analyses were not ideally developed for the PSCK computer simulation format, they represented a more challenging validation.
The validation agent used was xanthosine, a purine nucleoside that we have shown independently to induce tissue stem cells to switch from asymmetric self-renewal divisions to symmetric divisions that lead to self-replication.

In the case of `O=P1(N(CCCl)CCCl)NCCCO1` (stereo not drawn) [cyclophosphamide], the “Clinical Effects” value [1] is listed as “Cytoxan ®; extremely myelosuppressive” and the “Cell-type Specificity” value [2] is listed as “SC and TC”.
In the case of `CC(=O)[C@]1(O)Cc2c(O)c3c(c(O)c2[C@@H](O[C@H]2C[C@H](N)[C@H](O)[C@H](C)O2)C1)C(=O)c1ccccc1C3=O` [idarubicin], the “Clinical Effects” value [1] is given as “Targets hematopoietic progenitors”.
For `Cc1ccc(NC(=O)c2ccc(CN3CCN(C)CC3)cc2)cc1Nc1nccc(-c2cccnc2)n1` [imatinib mesylate], the “Cell-type Specificity” value [2] is listed as “TC^b”.
For `Cc1ccc(C(=O)Nc2ccc(CN3CCN(C)CC3)c(C(F)(F)F)c2)cc1C#Cc1cnc2cccnn12` [ponatinib], the “Clinical Effects” value [1] is given as “Inclusig ®; myelosuppressive”.
For `CS(=O)(=O)c1ccc(C2=C(c3ccccc3)C(=O)OC2)cc1` [refecoxib], the “Clinical Effects” value [1] is listed as “Vioxx ®; idiosyncratic life-threatening toxicity” and the “Cell-type Specificity” value [2] is listed as “SC and TC”.
For `Cn1cncc1[C@@](N)(c1ccc(Cl)cc1)c1ccc2c(c1)c(-c1cccc(Cl)c1)cc(=O)n2C` [tipifarnib], the “Clinical Effects” value [1] is given as “Highly toxic with myelosuppression”.
In the case of `O=c1[nH]c(=O)c2ncn([C@@H]3O[C@H](CO)[C@@H](O)[C@H]3O)c2[nH]1` [xanthosine], the “tissue stem cell self-replication” value (tissue stem cells) is given as “increases self-replication by adult tissue stem cells; also recorded: (In vitro, increases tissue SC self-replication)^1-5”, the “proliferative rate and extent of human liver stem cell serial cultures” value ([3]; experimental data) is given as “increase the proliferative rate and extent” and the “population doublings reached in serial culture” value ([3]; xanthosine-supplemented culture, control arrests after less than 30 population doublings) is given as “greater than 80 population doublings”. The “Cell-type Specificity” value [2] was “SC^a”.
